Test results: ChEMBL document CHEMBL4616693, “Identification of Inhibitors of Thrombospondin 1 Activation of TGF-β” (ACS Med Chem Lett, 2020)
Peptide text beside a SMILES is read from it.

Columns and labels:
Thrombospondin-1 [1] = target: T1, Thrombospondin-1 (Homo sapiens, UniProt P07996); assay: Inhibition of TSP1 in human myeloma cells assessed reduction in TGFbeta activity incubated for 1 hr by ELISA; assay type: cell-based
Target sequence in this assay (P07996 whole entry): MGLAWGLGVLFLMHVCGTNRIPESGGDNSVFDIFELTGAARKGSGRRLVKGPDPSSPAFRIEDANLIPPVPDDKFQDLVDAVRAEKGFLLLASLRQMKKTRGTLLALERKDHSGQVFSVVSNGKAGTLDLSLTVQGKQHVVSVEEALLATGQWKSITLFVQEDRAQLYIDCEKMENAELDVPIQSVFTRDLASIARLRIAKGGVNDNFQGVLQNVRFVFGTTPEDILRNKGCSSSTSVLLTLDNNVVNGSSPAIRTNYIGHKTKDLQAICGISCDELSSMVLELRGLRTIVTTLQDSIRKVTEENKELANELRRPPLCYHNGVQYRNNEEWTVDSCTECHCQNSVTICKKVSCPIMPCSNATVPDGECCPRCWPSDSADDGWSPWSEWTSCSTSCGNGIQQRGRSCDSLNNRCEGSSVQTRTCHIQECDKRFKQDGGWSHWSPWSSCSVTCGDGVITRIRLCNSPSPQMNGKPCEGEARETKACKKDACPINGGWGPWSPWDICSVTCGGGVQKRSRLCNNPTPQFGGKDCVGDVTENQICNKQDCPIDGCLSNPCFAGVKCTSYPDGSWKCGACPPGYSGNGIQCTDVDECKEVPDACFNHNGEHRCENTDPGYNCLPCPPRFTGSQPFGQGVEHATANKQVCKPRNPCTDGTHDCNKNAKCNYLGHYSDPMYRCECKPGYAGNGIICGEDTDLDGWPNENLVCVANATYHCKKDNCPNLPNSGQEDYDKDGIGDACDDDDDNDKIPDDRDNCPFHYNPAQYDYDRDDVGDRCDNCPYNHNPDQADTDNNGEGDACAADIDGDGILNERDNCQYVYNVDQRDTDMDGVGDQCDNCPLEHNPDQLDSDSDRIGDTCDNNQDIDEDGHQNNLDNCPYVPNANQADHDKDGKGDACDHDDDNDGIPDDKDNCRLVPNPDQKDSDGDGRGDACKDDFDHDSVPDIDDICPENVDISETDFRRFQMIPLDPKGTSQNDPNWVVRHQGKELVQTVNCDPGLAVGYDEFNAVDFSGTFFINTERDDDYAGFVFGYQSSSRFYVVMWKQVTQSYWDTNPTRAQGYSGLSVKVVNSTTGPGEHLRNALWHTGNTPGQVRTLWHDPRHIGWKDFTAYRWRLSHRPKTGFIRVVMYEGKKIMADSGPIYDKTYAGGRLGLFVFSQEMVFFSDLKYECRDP

Thrombospondin-1 [2] = target: T1, Thrombospondin-1; assay: Inhibition of recombinant human TSP1 P123 expressed in baculovirus system binding to recombinant human LAP at 10 nM preincubated for 10 mins followed by recombinant human LAP addition and measured after 2 hrs by ELISA relative to control
Target sequence in this assay (P07996 19-1170 limits assumed): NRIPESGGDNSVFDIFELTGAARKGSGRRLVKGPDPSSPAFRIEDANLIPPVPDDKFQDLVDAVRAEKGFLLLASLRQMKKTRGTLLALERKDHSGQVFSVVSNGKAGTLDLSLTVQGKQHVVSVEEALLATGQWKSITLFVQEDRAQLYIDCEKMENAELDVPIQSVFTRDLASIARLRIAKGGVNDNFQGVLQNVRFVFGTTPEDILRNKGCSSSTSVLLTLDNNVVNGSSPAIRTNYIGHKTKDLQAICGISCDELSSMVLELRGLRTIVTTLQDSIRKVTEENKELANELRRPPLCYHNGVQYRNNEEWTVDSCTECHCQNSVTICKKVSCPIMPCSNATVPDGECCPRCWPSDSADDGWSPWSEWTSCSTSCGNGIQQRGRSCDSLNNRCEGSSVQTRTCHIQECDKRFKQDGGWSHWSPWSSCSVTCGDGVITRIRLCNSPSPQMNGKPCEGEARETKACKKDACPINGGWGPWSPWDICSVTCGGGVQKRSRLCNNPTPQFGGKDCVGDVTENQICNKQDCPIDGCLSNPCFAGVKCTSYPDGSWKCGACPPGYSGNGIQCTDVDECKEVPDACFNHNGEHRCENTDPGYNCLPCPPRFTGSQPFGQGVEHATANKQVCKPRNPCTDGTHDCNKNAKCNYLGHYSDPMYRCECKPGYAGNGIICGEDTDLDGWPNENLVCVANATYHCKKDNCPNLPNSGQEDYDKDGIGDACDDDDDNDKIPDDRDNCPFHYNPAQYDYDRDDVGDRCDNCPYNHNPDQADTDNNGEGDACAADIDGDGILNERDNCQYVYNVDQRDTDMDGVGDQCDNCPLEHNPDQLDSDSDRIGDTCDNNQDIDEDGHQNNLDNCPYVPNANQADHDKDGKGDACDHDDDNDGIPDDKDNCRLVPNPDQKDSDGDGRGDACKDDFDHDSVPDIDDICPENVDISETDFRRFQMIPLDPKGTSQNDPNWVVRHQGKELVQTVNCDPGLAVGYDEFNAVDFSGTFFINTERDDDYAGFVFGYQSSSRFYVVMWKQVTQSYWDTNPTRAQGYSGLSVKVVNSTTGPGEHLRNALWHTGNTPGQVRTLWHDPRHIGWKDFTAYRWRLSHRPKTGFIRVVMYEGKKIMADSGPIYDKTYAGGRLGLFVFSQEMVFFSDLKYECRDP

[3] = Half life in CD1 mouse at 1 mg/kg, iv by LC-MS/MS analysis; assay type: ADME, organism-based; settings: in vivo
[4] = Microsomal stability in rat liver microsomes assessed as half life measured after 45 mins in presence of NADPH by LC-MS/MS analysis; assay type: ADME, Microsome
[5] = Microsomal stability in human liver microsomes assessed as half life measured after 45 mins in presence of NADPH by LC-MS/MS analysis; assay type: ADME, Microsome
[6] = Half life in ip dosed CD1 mouse by LC-MS/MS analysis; assay type: ADME, organism-based; settings: in vivo
[7] = Cmax in ip dosed CD1 mouse measured after 0.25 hrs by LC-MS/MS analysis; assay type: ADME, organism-based; design: route intraperitoneal; settings: in vivo
[8] = Plasma concentration in CD1 mouse at 1 mg/kg, iv or 5 mg/kg, po measured after 1 hr by LC-MS/MS analysis; assay type: ADME, organism-based
[9] = Plasma concentration in CD1 mouse at 1 mg/kg, iv or 5 mg/kg, po measured after 2 hrs by LC-MS/MS analysis; assay type: ADME, organism-based
[10] = Oral bioavailability in CD1 mouse at 5 mg/kg by LC-MS/MS analysis; assay type: ADME, organism-based; settings: in vivo

Which IC50 (Thrombospondin-1 [1]) does the source give for `CNC(=O)[C@H](CC(C)C)NC(=O)[C@@H](CCCCN)NC(=O)[C@@H](NC(C)=O)[C@@H](C)O` here?
The IC50 was 2.88 nM.

For `CC(=O)N[C@@H](CO)C(=O)N[C@@H](CCCCN)C(=O)N[C@H](CC(C)C)C(N)=O` (HELM PEPTIDE1{[ac].S.K.[dL].[am]}$$$$V2.0), which IC50 (Thrombospondin-1 [1]) is on record?
The IC50 was 2 nM.

With `CC(=O)N[C@H](CO)C(=O)N[C@@H](CCCCN)C(=O)N[C@@H](CC(C)C)C(N)=O` (HELM PEPTIDE1{[ac].[dS].K.L.[am]}$$$$V2.0) as the molecule, how does the IC50 (Thrombospondin-1 [1]) read?
The IC50 was 0.38 nM.

With `CC(=O)N[C@@H](CO)C(=O)N[C@@H](CCCCN(C)C)C(=O)N[C@@H](CC(C)C)C(N)=O` (HELM PEPTIDE1{[ac].S.[CN(C)CCCC[C@H](N[*:1])C(=O)[*:2]].L.[am]}$$$$V2.0) as the molecule, how does the IC50 (Thrombospondin-1 [1]) read?
Its IC50 is 1.51 nM.

Which IC50 (Thrombospondin-1 [1]) does the source give for `CCC(=O)N[C@@H](CO)C(=O)N[C@@H](CCCCN)C(=O)N[C@@H](CC(C)C)C(N)=O` (HELM PEPTIDE1{[CCC(=O)[*:2]].S.K.L.[am]}$$$$V2.0) here?
Its IC50 is 13.5 nM.

With `CC(=O)N[C@@H](CO)C(=O)N[C@@H](CCCCN)C(=O)N(C)[C@@H](CC(C)C)C(N)=O` (HELM PEPTIDE1{[ac].S.K.[meL].[am]}$$$$V2.0) as the molecule, how does the IC50 (Thrombospondin-1 [1]) read?
The IC50 was 2.24 nM.

With `CC(=O)NCCCC[C@H](NC(=O)[C@H](CO)NC(C)=O)C(=O)N[C@@H](CC(C)C)C(N)=O` (Ac-Ser-Lys(Ac)-Leu-NH2) as the molecule, how does the IC50 (Thrombospondin-1 [1]) read?
Its IC50 is 15.1 nM.

Which IC50 (Thrombospondin-1 [1]) does the source give for `CC(=O)N[C@@H](CO)C(=O)N[C@H](CCCCN)C(=O)N[C@@H](CC(C)C)C(N)=O` (HELM PEPTIDE1{[ac].S.[dK].L.[am]}$$$$V2.0) here?
Its IC50 is 1.7 nM.

Which IC50 (Thrombospondin-1 [1]) does the source give for `CC(=O)NCC(=O)N[C@@H](CCCCN)C(=O)N[C@@H](CC(C)C)C(N)=O` (Ac-Gly-Lys-Leu-NH2) here?
The IC50 was 14.1 nM.

With `CC(=O)N[C@@H](CC(N)=O)C(=O)N[C@@H](CCCCN)C(=O)N[C@@H](CC(C)C)C(N)=O` (Ac-Asn-Lys-Leu-NH2) as the molecule, how does the IC50 (Thrombospondin-1 [1]) read?
The IC50 was 9.55 nM.

For `CC(=O)N[C@@H](CO)C(=O)N[C@@H](CCCCN)C(=O)N[C@@H](CC(C)C)C(=O)N(C)C` (HELM PEPTIDE1{[ac].S.K.L.[CN(C)[*:1]]}$$$$V2.0), which IC50 (Thrombospondin-1 [1]) is on record?
Its IC50 is 3.31 nM.

With `CC(=O)N[C@@H](CO)C(=O)N[C@@H](CCCN)C(=O)NC(C)(C)C(N)=O` (HELM PEPTIDE1{[ac].S.[Orn].[Aib].[am]}$$$$V2.0) as the molecule, how does the inhibition (Thrombospondin-1 [2]) read?
Its inhibition is 34%.

With `CC(=O)N[C@@H](CO)C(=O)N[C@@H](CCCCN)C(=O)N[C@@H](CC(C)C)C(N)=O` (Ac-Ser-Lys-Leu-NH2) as the molecule, how does the half-life [3] read?
The half-life was 1.9 h.

And the IC50 (Thrombospondin-1 [1])?
Its IC50 is 5.25 nM.

What about the inhibition (Thrombospondin-1 [2]) of the same molecule?
Its inhibition is 85%.

With `CNCCCC[C@H](NC(=O)[C@H](CO)NC(C)=O)C(=O)N[C@@H](CC(C)C)C(N)=O` (HELM PEPTIDE1{[ac].S.[CNCCCC[C@H](N[*:1])C(=O)[*:2]].L.[am]}$$$$V2.0) as the molecule, how does the IC50 (Thrombospondin-1 [1]) read?
The IC50 was 4.37 nM.

For `CC(=O)N[C@@H](CCCN)C(=O)NC(C)(C)C(N)=O`, which half-life [4] is on record?
Its half-life is 2.83 h.

What about the half-life [5] of the same molecule?
Its half-life is greater than 5 h.

And the half-life [3]?
Its half-life is 0.2 h.

And the half-life [6]?
Its half-life is 7 h.

And the Cmax [7]?
The Cmax was 19400 ng/mL.

What about the concentration at 1 h [8] of the same molecule?
Its concentration at 1 h is 11.6 µM.

And the concentration at 2 h [9]?
Its concentration at 2 h is 2.1 µM.

What about the bioavailability [10] of the same molecule?
Its bioavailability is 9%.

What about the IC50 (Thrombospondin-1 [1]) of the same molecule?
Its IC50 is 7.59 nM.

And the inhibition (Thrombospondin-1 [2])?
Its inhibition is 85%.
